“Also recorded” adds a separate entry of the source. Read-outs that look alike come from different tables or passages of the source.
Key:
[1] = system: PROb cells; experiment: PROb i.p. rat colon cancer model, 5-FU combined with OM-174: carcinomatosis classes, ascites, survival; assay type: in vivo; conditions: day 61; for Number of rats in carcinomatosis class 0: Class 0: no visible nodule, 5-FU 30 mg/kg i.p. days 7 and 14, OM-174 1 mg/kg i.v. from day 21, 10 injections; for Number of rats in carcinomatosis class 1: Class 1: some countable nodules with a diameter from 0.1 to 0.3 cm; for Number of rats in carcinomatosis class 2: Class 2: many uncountable nodules with a diameter from 0.1 to 0.3 cm; for Number of rats in carcinomatosis class 3: Class 3: some nodules with a diameter of 1 cm invade the peritoneal cavity; for Number of rats in carcinomatosis class 4: Class 4: the cavity is completely invaded by tumor masses of several cm; for Ascites: measured by double weights of the rats
Experimental: On day 0 (D0), 106 PROb cells were injected i.p. to each rat. 5-FU was administered i.p. at the dose of 30 mg/kg on days 7 and 14. OM-174 was injected at the dose of 1 mg/kg i.v. from day 21 three times a week for a total of 10 injections.
All rats (controls and treated) were sacrificed by CO2 on day 61. The efficacy of the treatment was determined by read-outs such as survival (FIG. 5) and measure of the classes of cancer given depending on the number and the size of the nodules, and also by ascites measurements. Carcinomatoses were evaluated blindly. As it is impossible to measure the volume of a carcinomatosis, they were classified according to the number and diameter of the nodules: • Class 0: no visible nodule • Class 1: some countable nodules with a diameter from 0.1 to 0.3 cm • Class 2: many uncountable nodules with a diameter from 0.1 to 0.3 cm • Class 3: some nodules with a diameter of 1 cm invade the peritoneal cavity • Class 4: the cavity is completely invaded by tumor masses of several cm.
The ascite volume was measured by double weights of the rats.

[2] = system: B16 melanoma cells; experiment: Cytotoxic (CTL) activity of spleen cells against autologous tumour cells, 51Cr-release assay; conditions: for CTL % cytotoxicity: E/T ratio 25:1
Text: (§2) Mice were sacrificed by cervical dislocation on day 14 after tumour inoculation.
(§3) In vitro-passaged YAC-1 cells (a Moloney-virus induced mouse T cells lymphoma of A/SN origin), and in vivo-passaged B16 melanoma cells, were used as target cells in a chromium-release assay. B16 melanoma cells were obtained from tumour-bearing mice, seeded in cell-culture flasks (Falcon, Becton Dickinson and Co., Plymouth, England) and used within the first week of culture in CM. B16 and YAC-1 cell lines were obtained from the laboratory collection, and were originally obtained from the American Tissue Culture Collection (ATCC).
(§4) The cytotoxic activity of the effector cells collected from individual mice was measured by a standard 4-hour ^51Cr-release assay. Briefly, target cells were harvested from the cultures, washed twice, resuspended at 5×10^6 cells in 0.9 ml of CM and labelled with 100 μCi (^51Cr) sodium chromate (New England Nuclear, Boston, Mass.) for 1 hour at 37° C. in a 5% CO2 incubator. […] The effector cells suspension was added to quadruplicate wells to give three E/T ratios (i.e. 100:1, 50:1, 25:1) in a final volume of 200 μl per well. The plates were then incubated for 4 hours at 37° C. in a 5% CO2 incubator, 100 μl of supernatants were collected from each well, and the radioactivity was measured using a gamma counter. Total mean cytotoxicity±S.E.M. were calculated from quadruplicate cpm values from individual spleens.
It has been tested from spleen cells from normal and tumour-bearing mice for specific cytotoxic activity against autologous tumour cells using in-vivo passaged B16 melanoma cells as target.

[3] = system: spleen cells expressing CD4, CD8, and NK1.1; experiment: Flow cytometric analysis of spleen cell subsets; assay type: in vivo, C57BL/6 mice; conditions: for NK (%): NK1.1 positive cells vs total spleen cells; for NK (%) / CD4^+ (%) / CD8^+ (%): mean ± S.E.M; for CD4^+ (%) / CD8^+ (%): positive cells vs total spleen cells
Experimental: Splenocytes from individual mice were analysed by flow cytometry. The following monoclonal antibodies were used for double fluorescence analysis of spleen cell subsets: fluorescein (FITC)-conjugated anti-mouse NK1.1 PE (PharMingen, San Diego, Calif.), PE-conjugated anti-mouse CD4 (PharMingen), FITC-conjugated anti-mouse CD8 (PharMingen). Approximately 1×10^6 spleen cells were resuspended in […] of CM and staining was performed at 4° C. for 30 minutes. Cells were then washed twice in PBS containing 0.02% sodium azide and flow cytometric analysis was performed using a FACscan flow cytometer (Becton Dickinson).
Fluorescence data were collected using a 488 nm excitation wavelength from a 15 mW air-cooled argon-ion laser. […] A minimum of 5,000 events were collected on each sample and acquired in list mode by a Hewlett Packard 9000 computer. To exclude dead cells, debris, non lymphoid cells, and cell aggregates, data collection was gated on live spleen lymphocytes by forward and side angle scatter. Data are represented as the percentage of positive cells over the total number of cells counted.

[4] = system: B16 melanoma; experiment: B16 melanoma model: tumour growth and survival time; assay type: in vivo, C57BL/6 mice; conditions: CY 200 mg/Kg i.p. day 7; OM-174 1 mg/kg i.p. days 8, 13, 18, 23, 28; vs untreated controls
Experimental: Four to six weeks-old male C57BL/6 mice were purchased from Charles River (Calco, Corno, Italy). B 16 melanoma tumour cells were serially passaged subcutaneously (s.c.) in syngenic mice. On day 0, mice were injected s.c. in the right flank with 2×10^5 B16 melanoma cells. Tumour growth was measured daily in each mouse, using calipers, and mean tumour diameter per day was calculated. At day 7 after tumour injection, all mice with s.c. tumours of about 2-3 mm diameter were divided into different experimental groups, i.e. phosphate buffered saline (PBS)-injected control 3, CY, OM-174 or CY with OM-174.
Cyclophosphamide (Sigma, St. Louis, Mo.) was dissolved at 20 mg/ml in PBS immediately before use, and 0.2 ml per mouse were injected intraperitoneally. Each treated animal received a single dose of 200 mg/Kg CY on day 7.
Kaplan-Meier method was used to estimate the survivor functions and Log-rank test was performed for testing the homogeneity of survival functions across the four groups (control, CY, OM-174, CY+OM-174).
Tumor growth was analyzed by T-test for unpaired data.

[5] = system: YAC-1 cells; experiment: NK activity of spleen cells, 4-hour 51Cr-release assay; conditions: for NK activity (in words): B16 melanoma-injected mice; for NK % cytotoxicity: E/T ratio 25:1, mean ± S.E.
Text: as §2, §3, §4
It has been therefore measured the cytotoxic activity of splenocytes against NK-sensitive (YAC-1) tumour cells.

[6] = system: PROb subcutaneous colon tumors; assay type: in vivo, BDIX rats
[7] = system: PROb cells; experiment: BDIX/PROb peritoneal carcinomatosis, cisplatin combined with OM-174, survival; assay type: in vivo, BDIX rats; conditions: cisplatin 3 mg/kg i.v. day 21; OM-174 1 mg/kg i.v., 5 injections every 5th day from day 28 or 35
Experimental: Colon cancer PROb cells were originally obtained from a tumor of a BDIX rat induced by 1,2-dimethylhydrazine.
The BDIX strain of rats was established in 1937 by H. Druckrey. Nowadays these rats come from Iffa-Credo (L'Asbresle, France).
BDIX rats, 4 months±1 month at the beginning of the experiment, 7 animals/group, received i.p. cultured syngenic PROb cells (i.p) on day 0. Cisplatin (3 mg/kg) was injected i.v. on day 21, and OM-174 treatment (1 mg/kg, 5 injections i.v. in the penile vein every 5th day) started either on days 28 or 35. Survival was followed until day 72 in the example presented here.
In this example, cisplatin (3 mg/kg i.v) is given on day 21. A further immunostimulating treatment with OM-174 is started only on day 28 or 35 (1 mg/kg, 5 injections i.v. every 5th day).

[8] = system: EMT-6 cells; experiment: Direct radiosensitisation of EMT-6 cells, 8-day colony formation assay; assay type: cell-based, mouse
Experimental: (§1) Murine mammary adenocarcinoma EMT-6 cells were cultured in RPMI medium+10% bovine calf serum in plastic flasks. EMT-6 monolayer cultures grown to early confluence were exposed to OM-174 for 16 hours in both conditions (21% and 1% oxygen). After treatment with OM-174, nitrite determination using the classical Griess method was performed. Values were normalized for 200'000 cells per well.
Cells were then collected by trypsinization and the radioresponse was estimated as described previously (Van der Berge et al., 2001) Briefly, micropellets (0.5×10^6 cells) were produced in conical tubes by centrifugation at 300 g for 5 min. Metabolic oxygen depletion in micropellets was induced by incubation at 37° C. for 3 minutes prior to radiation. Micropellets were irradiated with a linear accelerator at a rate of 2 Gy per min and the survival fraction (SF) after 5, 10, 15, and 20 Gy was measured by a 8-day colony formation assay.

[9] = Single dose i.v. infusion study of OM-174 in cancer patients (tolerability, cytokines); assay type: in vivo
Experimental: Doses higher than 1 mg OM-174/m^2 by i.v. infusion were reached without unacceptable toxicity according to non-haematological grade III and haematological grade IV NCI Common Toxicity Criteria.
Secretion occurred in all steps, and appeared more “patient”- than “dose”-dependent.
The results of this single dose study led to the selection of three doses (0.6, 0.8, and 1.0 mg OM-174/m^2) for repeated i.v. injections (5 to 15 injections), used in a phase Ib study.

[10] = system: EMT-6 cells; experiment: NO production (nitrite, Griess method) by EMT-6 cells exposed to OM-174; assay type: cell-based, mouse; conditions: 16 hours
Experimental: as §1

[11] = Pharmacokinetic data of OM-174 in man; conditions: human, in vivo, median and range; for Vd: read-out: Vss
[12] = system: ProB cells; conditions: cited from earlier work
[13] = system: EMT-6 cells; experiment: Indirect radiosensitisation via OM-174-induced conditioned medium; assay type: cell-based, mouse; conditions: 3 μg/ml versus 0.3 μg/ml; conditioned medium from Whistar rats
[14] = B16 tumour-bearing mice, day 14, CY 200 mg/Kg i.p. day 7, OM-174 1 mg/kg i.p. days 8 and 13, mean ± S.E.
[15] = B16 tumour-bearing mice, day 14

O=c1[nH]cc(F)c(=O)[nH]1 [5-FU, 5-Fluorouracil, reference compound]
Number of rats in carcinomatosis class 0 [1]: 2
Number of rats in carcinomatosis class 1 [1]: 0
Number of rats in carcinomatosis class 2 [1]: 0
Number of rats in carcinomatosis class 3 [1]: 0
Number of rats in carcinomatosis class 4 [1]: 8
Carcinomatosis classes versus Control group (Mann-Whitney test) [1]: No significant difference
Ascites [1]: 44 mL

O=P1(N(CCCl)CCCl)NCCCO1 (stereo not shown) [CY, cyclophosphamide, reference compound]
CTL % cytotoxicity [2, 14]: 2.63 ± 0.2%
Cytotoxic activity against autologous tumour cells (in words) ([2]; tumour-bearing mice): not to be increased
NK (%) [3, 15]: 4 ± 0.5%
CD4^+ (%) [3, 15]: 21.7 ± 1.8%
CD8^+ (%) [3, 15]: 6.4 ± 1.4%
B16 tumour growth (in words, FIG. 1) [4]: inhibited slightly but significantly
Survival time (MST) of mice (in words, FIG. 2) [4]: increased slightly but significantly
NK activity (in words) ([5]; day 14): decreased NK activity
NK % cytotoxicity ([5]; B16 tumour-bearing mice, day 14, CY 200 mg/Kg i.p. day 7, OM-174 1 mg/kg i.p. days 8 and 13): 2.3 ± 0.4%
Antitumoral effect of single treatment on large, established PROb tumors (in words, FIG. 3) ([6]; rat, in vivo): transient regression; also recorded: unable to cure animals
Number of cured animals/total number of animals ([6]; rat, in vivo): 0/6

N.N.[Cl][Pt][Cl] [Cisplatin, cisplatin, reference compound]
Antitumour activity / survival (in words, FIG. 4) [7]: only partial efficacy

CCCCCCCCCCCC(=O)O[C@H](CCCCCCCCCCC)CC(=O)N[C@@H]1C(O)[C@H](OP(=O)(O)O)C(CO)O[C@H]1OCC1O[C@H](OP(=O)(O)O)C(NC(=O)C[C@H](O)CCCCCCCCCCC)C(O)[C@@H]1O (stereo partly shown) [OM-174]
CTL % cytotoxicity [2, 14]: 5.6 ± 0.9%
CTL % cytotoxicity ([2]; normal mice): <1%
Cytotoxic activity against autologous tumour cells (in words) ([2]; tumour-bearing mice): marked stimulation of CTL activity
Increase of CTL activity with respect to tumour controls ([2]; tumour-bearing mice): two-fold increase
Direct radiosensibilizing effect (in words, FIG. 7) ([8]; 21% versus 1% oxygen): directly radiosensibilizing agent for cancer cells only in hypoxic conditions
Lowering of the radiation dose necessary to kill 90% of the cells versus absence of OM-174 ([8]; hypoxic conditions, at either 3 or 30 mg/ml (FIG. 7)): 1.67
NK (%) [3, 15]: 7.5 ± 0.5%
CD4^+ (%) [3, 15]: 27.0 ± 2.0%
CD8^+ (%) [3, 15]: 9.3 ± 1.8%
Percentages of CD4^+, CD8^+ and NK1.1 positive spleen cells (in words) ([3]; normal and tumour-bearing mice): increased the percentages
NK (%) ([3]; normal mice): 11.6 ± 2.1%
CD4^+ (%) ([3]; normal mice): 34.0 ± 2.5%
CD8^+ (%) ([3]; normal mice): 12.6 ± 1.5%
Antitumour activity / survival (in words, FIG. 4) [7]: anticancer effect is lost
Number of rats in carcinomatosis class 0 [1]: 2
Number of rats in carcinomatosis class 1 [1]: 3
Number of rats in carcinomatosis class 2 [1]: 2
Number of rats in carcinomatosis class 3 [1]: 2
Number of rats in carcinomatosis class 4 [1]: 1
Carcinomatosis classes versus Control group (Mann-Whitney test) [1]: significant difference
Ascites [1]: 1 mL
B16 tumour growth (in words, FIG. 1) [4]: partially inhibits tumour progression; also recorded: inhibited slightly but significantly
Survival time (MST) of mice (in words, FIG. 2) [4]: slightly extends the survival time; also recorded: increased slightly but significantly
Tolerability [9]: well tolerated
Doses reached without unacceptable toxicity ([9]; i.v. infusion, non-haematological grade III and haematological grade IV NCI Common Toxicity Criteria): higher than 1 mg OM-174/m^2
Cytokine secretion (TNF-α, IL-1b, IL-1ra, IL-6, IL-8, sTNF-RI, sTNF-RII, IL-10, IL-2, IL-2sRa, IFN-γ) ([9]; single dose study): secretion profile consistent with that of lipid A derivatives
NO production (in words, FIG. 6) ([10]; hypoxic (1% oxygen) condition): increased production of NO
NO production (in words, FIG. 6) ([10]; normal oxygen levels (21% oxygen)): low amounts of NO
clearance ([11]; intravenous, Cancer patients): 1.7 mL/min
half-life ([11]; intravenous, Cancer patients): 1200 min
Vd ([11]; intravenous, Cancer patients): 2.9 L
clearance ([11]; Healthy volunteers): 2.82 mL/min
half-life ([11]; Healthy volunteers): 1380 min
Vd ([11]; Healthy volunteers): 5.1 L
Therapeutic activity per se (in words) ([12]; treatment started up to 14 days after tumour induction, WO 95/14026): strong therapeutic activity
Complete remissions ([12]; treatment starts 14 days after the injection of the cancer cells, peritoneal carcinomatoses): 90%
NK activity (in words) ([5]; day 14): dramatic increase
cytotoxicity at 1 mg/kg ([5]; Mus musculus, YAC-1, ip, read-out: NK % cytotoxicity): 6.3 ± 1.7%
NK cell activity (in words) ([5]; normal mice, vs untreated controls): dramatic increase
NK % cytotoxicity ([5]; normal mice, five mice): 10.39 ± 1.0 %
Number of cured animals/total number of animals ([6]; CY 25 mg/kg i.p. day 36, i.t. immunostimulant from day 43 (OM-174 200 μg x12, CpG 100 μg x12, BCG days 43 and 50)): 1/6
Antitumoral effect of single treatment on large, established PROb tumors (in words, FIG. 3) ([6]; agent alone, comparatively to untreated animals): no antitumoral effect
Effect of i.t. immunostimulant on the antitumor activity of CY (in words) ([6]; i.p. CY day 36 combined with i.t. immunostimulant from day 43): strongly enhanced
Complete and lasting tumor regression (animals) ([6]; i.p. CY day 36 followed by i.t. OM-174 from day 43): 4/6
Indirect radiosensibilizing effect via conditioned medium (in words, FIG. 8) [13]: clearly more radiosensibilizing
